Measured values reported in patent US11046694B2, “Compounds and methods for treating bacterial infections” (Entasis Therapeutics, Inc., priority 2018, dated 2021).
Counter-ions that a name gives are not always drawn.

Columns and labels:
[1] = tested on: E. coli (ATCC25922); assay: MIC against E. coli; details: Escherichia coli, ATCC25922, read-out: E. coli MIC (ATCC25922) (mg/L)
[2] = tested on: A. baumannii (ARC3495); assay: MIC against A. baumannii; details: Acinetobacter baumannii, read-out: A. baumannii MIC (ARC3495) (mg/L)
[3] = target: P. aeruginosa PBP1a (Pseudomonas aeruginosa, UniProt Q07806); format: biochemical; details: P. aeruginosa PBP1a 60 nM, BOCILLIN FL 30 nM, pH 7.0
Chain of P. aeruginosa PBP1a (Q07806 whole entry): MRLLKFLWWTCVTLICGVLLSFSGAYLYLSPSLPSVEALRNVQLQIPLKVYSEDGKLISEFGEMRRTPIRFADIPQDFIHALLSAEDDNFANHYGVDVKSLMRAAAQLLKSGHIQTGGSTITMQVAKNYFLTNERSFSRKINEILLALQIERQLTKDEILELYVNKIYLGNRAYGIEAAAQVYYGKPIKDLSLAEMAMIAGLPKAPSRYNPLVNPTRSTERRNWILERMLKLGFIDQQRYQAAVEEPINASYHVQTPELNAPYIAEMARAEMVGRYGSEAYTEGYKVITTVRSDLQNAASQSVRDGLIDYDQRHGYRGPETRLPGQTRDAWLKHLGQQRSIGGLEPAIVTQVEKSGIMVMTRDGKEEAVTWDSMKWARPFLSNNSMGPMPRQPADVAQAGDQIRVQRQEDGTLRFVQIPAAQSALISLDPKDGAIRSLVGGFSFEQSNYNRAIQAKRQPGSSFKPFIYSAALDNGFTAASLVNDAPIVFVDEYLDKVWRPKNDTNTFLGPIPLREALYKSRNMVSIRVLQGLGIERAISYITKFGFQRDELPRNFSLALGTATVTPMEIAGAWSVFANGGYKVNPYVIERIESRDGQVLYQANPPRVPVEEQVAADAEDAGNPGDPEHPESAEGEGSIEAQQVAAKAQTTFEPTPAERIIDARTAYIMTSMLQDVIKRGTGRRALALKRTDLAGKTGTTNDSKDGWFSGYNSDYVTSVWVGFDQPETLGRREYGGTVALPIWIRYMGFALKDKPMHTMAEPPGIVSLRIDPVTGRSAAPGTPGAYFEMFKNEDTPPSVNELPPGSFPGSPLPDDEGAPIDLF

[4] = tested on: K. pneumoniae (ATCC700603); assay: MIC against K. pneumoniae; details: Klebsiella pneumoniae, ATCC700603, read-out: K. pneumoniae MIC (ATCC700603)
[5] = target: P. aeruginosa PBP3 (Pseudomonas aeruginosa, UniProt G3XD46); format: biochemical; details: P. aeruginosa PBP3 60 nM, BOCILLIN FL 30 nM, pH 7.0
Chain of P. aeruginosa PBP3 (G3XD46 whole entry): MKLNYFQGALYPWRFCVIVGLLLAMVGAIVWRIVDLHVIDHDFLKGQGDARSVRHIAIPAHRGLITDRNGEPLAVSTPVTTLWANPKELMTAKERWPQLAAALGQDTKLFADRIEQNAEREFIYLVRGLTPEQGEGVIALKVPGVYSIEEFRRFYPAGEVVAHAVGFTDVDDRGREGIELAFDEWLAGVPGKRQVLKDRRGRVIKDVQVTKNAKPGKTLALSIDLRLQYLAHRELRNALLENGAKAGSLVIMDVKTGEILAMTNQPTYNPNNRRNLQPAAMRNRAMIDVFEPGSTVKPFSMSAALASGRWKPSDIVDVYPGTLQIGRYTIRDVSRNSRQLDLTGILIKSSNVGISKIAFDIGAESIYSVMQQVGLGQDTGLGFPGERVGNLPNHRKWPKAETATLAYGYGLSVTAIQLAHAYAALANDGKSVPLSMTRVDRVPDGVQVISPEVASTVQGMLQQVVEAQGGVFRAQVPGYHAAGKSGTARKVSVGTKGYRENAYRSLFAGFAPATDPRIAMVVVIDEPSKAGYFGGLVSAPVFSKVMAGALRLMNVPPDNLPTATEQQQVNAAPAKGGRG

[6] = target: T1, P. aeruginosa PBP2 (Pseudomonas aeruginosa, UniProt Q9X6V3); format: biochemical; details: P. aeruginosa PBP2 300 nM, BOCILLIN FL 30 nM, pH 6.2
T1 sequence (Q9X6V3 1-646): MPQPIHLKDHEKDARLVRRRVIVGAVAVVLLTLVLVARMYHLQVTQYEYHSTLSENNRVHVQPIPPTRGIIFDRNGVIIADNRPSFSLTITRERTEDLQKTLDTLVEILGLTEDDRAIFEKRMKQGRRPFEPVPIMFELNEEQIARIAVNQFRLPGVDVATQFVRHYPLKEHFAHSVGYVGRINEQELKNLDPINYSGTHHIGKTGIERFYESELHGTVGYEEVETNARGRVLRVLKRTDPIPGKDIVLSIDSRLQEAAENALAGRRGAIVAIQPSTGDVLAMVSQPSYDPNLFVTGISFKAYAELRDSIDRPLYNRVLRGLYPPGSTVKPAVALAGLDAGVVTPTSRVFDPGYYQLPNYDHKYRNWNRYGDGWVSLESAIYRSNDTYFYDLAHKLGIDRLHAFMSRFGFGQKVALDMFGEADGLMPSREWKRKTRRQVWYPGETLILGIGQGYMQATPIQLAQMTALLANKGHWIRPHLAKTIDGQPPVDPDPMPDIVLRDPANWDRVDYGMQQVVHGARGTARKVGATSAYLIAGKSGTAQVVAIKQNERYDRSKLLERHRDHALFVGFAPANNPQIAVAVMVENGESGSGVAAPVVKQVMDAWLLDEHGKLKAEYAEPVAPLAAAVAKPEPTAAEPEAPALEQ

[7] = tested on: P. aeruginosa WT (PAO1); assay: MIC, CLSI broth microdilution, P. aeruginosa; format: cell-based; details: Pseudomonas aeruginosa, PAO1; CLSI broth microdilution; read-out: P. aeruginosa WT (PAO1) MIC

MIC [1] [mg/L] | MIC [2] [mg/L] | MIC [4] [µg/mL] | MIC [7] [µg/mL] | SMILES | PBP1a acylation rate, k(on) (M^−1 · s^−1) [3] | PBP3 acylation rate, k(on) (M^−1 · s^−1) [5] | PBP2 acylation rate, k(on) (M^−1 · s^−1) [6]
< 8 | > 16 | > 16 | > 16 | CC1C([C@@H]2c3c(cnn3C)[C@@H]3CN2C(=O)N3OS(=O)(=O)O)=NOC1CO (mixture of isomers) [Example 39, Pyridium (4R,8S)-8-(5-(hydroxymethyl)-4-methyl-4,5-dihydroisoxazol-3-yl)-1-methyl-6-oxo-4,8-dihydro-1H-4,7-methanopyrazolo[3,4-e][1,3]diazepin-5(6H)-yl hydrogen sulfate] | * (* represents a k(on) < 100 M^−1 · s^−1) | ** (** represents a k(on) of 100 to 10,000 M^−1 · s^−1) | * (* represents a k(on) < 100 M^−1 · s^−1)
< 8 | > 16 | > 16 | > 16 | CN/C(=N\O)[C@H]1c2c(cnn2C)[C@H]2CN1C(=O)N2OS(=O)(=O)O (stereo in doubt) [Example 41, Sodium (4S*,8R*)-8-((Z)—N′-hydroxy-N-methylcarbamimidoyl)-1-methyl-6-oxo-4,8-dihydro-1H-4,7-methanopyrazolo[3,4-e][1,3]diazepin-5(6H)-yl hydrogen sulfate] | * (* represents a k(on) < 100 M^−1 · s^−1) | ** (** represents a k(on) of 100 to 10,000 M^−1 · s^−1) | * (* represents a k(on) < 100 M^−1 · s^−1)
< 8 | > 16 | < 8 | < 8 | Cn1ncc2c1[C@@H](CN)N1C[C@@H]2N(OS(=O)(=O)O)C1=O [Comparator 1, reference compound] | * (* represents a k(on) < 100 M^−1 · s^−1) | * (* represents a k(on) < 100 M^−1 · s^−1) | *** (*** represents a k(on) > 5,000 M^−1 · s^−1)
< 8 | > 16 | > 16 | > 16 | CNC(=O)[C@@H]1c2c(cnn2C)[C@@H]2CN1C(=O)N2OS(=O)(=O)O [Comparator 2, reference compound] | * (* represents a k(on) < 100 M^−1 · s^−1) | ** (** represents a k(on) of 100 to 10,000 M^−1 · s^−1) | * (* represents a k(on) < 100 M^−1 · s^−1)
8 to 16 | 8 to 16 | 8 to 16 | > 16 | CN(C)/C(=N\O)[C@@H]1c2c(cnn2C)[C@@H]2CN1C(=O)N2OS(=O)(=O)O [Example 2, (4R,8S)-8-((Z)—N′-hydroxy-N,N-dimethylcarbamimidoyl)-1-methyl-6-oxo-4,8-dihydro-1H-4,7-methanopyrazolo[3,4-e][1,3]diazepin-5(6H)-yl hydrogen sulfate] | ** (** represents a k(on) of 100 to 10,000 M^−1 · s^−1) | *** (*** represents a k(on) > 10,000 M^−1 · s^−1) | * (* represents a k(on) < 100 M^−1 · s^−1)
< 8 | > 16 | < 8 | > 16 | Cn1ncc2c1[C@@H](/C(N)=N/O)N1C[C@@H]2N(OS(=O)(=O)[O-])C1=O.[Na+] [Example 3, Sodium (4R,8S)-8-((Z)—N′-hydroxycarbamimidoyl)-1-methyl-6-oxo-4,8-dihydro-1H-4,7-methanopyrazolo[3,4-e][1,3]diazepin-5(6H)-yl sulfate] | * (* represents a k(on) < 100 M^−1 · s^−1) | ** (** represents a k(on) of 100 to 10,000 M^−1 · s^−1) | * (* represents a k(on) < 100 M^−1 · s^−1)
< 8 | > 16 | > 16 | > 16 | CN/C(=N\OC)[C@@H]1c2c(cnn2C)[C@@H]2CN1C(=O)N2OS(=O)(=O)O [Example 4, (4R,8S)-8-((Z)—N′-methoxy-N-methylcarbamimidoyl)-1-methyl-6-oxo-4,8-dihydro-1H-4,7-methanopyrazolo[3,4-e][1,3]diazepin-5(6H)-yl hydrogen sulfate] | ** (** represents a k(on) of 100 to 10,000 M^−1 · s^−1) | *** (*** represents a k(on) > 10,000 M^−1 · s^−1) | * (* represents a k(on) < 100 M^−1 · s^−1)
8 to 16 | > 16 | > 16 | > 16 | Cn1ncc2c1[C@@H](C1=NOC(CO)C1)N1C[C@@H]2N(OS(=O)(=O)O)C1=O (stereo partly drawn) [Example 38, (4R,8S)-8-(5-(hydroxymethyl)-4,5-dihydroisoxazol-3-yl)-1-methyl-6-oxo-4,8-dihydro-1H-4,7-methanopyrazolo[3,4-e][1,3]diazepin-5(6H)-yl hydrogen sulfate] | * (* represents a k(on) < 100 M^−1 · s^−1) | * (* represents a k(on) < 100 M^−1 · s^−1) | * (* represents a k(on) < 100 M^−1 · s^−1)
< 8 | < 8 | < 8 | < 8 | CN/C(=N\O)[C@@H]1c2c(cnn2CCN)[C@@H]2CN1C(=O)N2OS(=O)(=O)O [Example 47, (4R,8S)-1-(2-aminoethyl)-8-((Z)—N′-hydroxy-N-methylcarbamimidoyl)-6-oxo-4,8-dihydro-1H-4,7-methanopyrazolo[3,4-e][1,3]diazepin-5(6H)-yl hydrogen sulfate] | ** (** represents a k(on) of 100 to 10,000 M^−1 · s^−1) | *** (*** represents a k(on) > 10,000 M^−1 · s^−1) | * (* represents a k(on) < 100 M^−1 · s^−1)
< 8 | > 16 | > 16 | > 16 | Cn1ncc2c1[C@@H](/C(=N/O)NCc1nc(N)cs1)N1C[C@@H]2N(OS(=O)(=O)O)C1=O [Example 51, (4R,8S)-8-((Z)—N-((4-aminothiazol-2-yl)methyl)-N′-hydroxycarbamimidoyl)-1-methyl-6-oxo-4,8-dihydro-1H-4,7-methanopyrazolo[3,4-e][1,3]diazepin-5(6H)-yl hydrogen sulfate] | ** (** represents a k(on) of 100 to 10,000 M^−1 · s^−1) | ** (** represents a k(on) of 100 to 10,000 M^−1 · s^−1) | * (* represents a k(on) < 100 M^−1 · s^−1)
< 8 | > 16 | > 16 | > 16 | Cn1ncc2c1[C@@H](/C(=N/OC(=O)NC(C)(C)C(=O)O)NCc1nc(N)cs1)N1C[C@@H]2N(OS(=O)(=O)O)C1=O [Example 52, (Z)-1-(4-aminothiazol-2-yl)-8,8-dimethyl-3-((4R,8S)-1-methyl-6-oxo-5-(sulfooxy)-4,5,6,8-tetrahydro-1H-4,7-methanopyrazolo[3,4-e][1,3]diazepin-8-yl)-6-oxo-5-oxa-2,4,7-triazanon-3-en-9-oic acid] | ** (** represents a k(on) of 100 to 10,000 M^−1 · s^−1) | ** (** represents a k(on) of 100 to 10,000 M^−1 · s^−1) | * (* represents a k(on) < 100 M^−1 · s^−1)

SMILES | MIC [1] [mg/L] | MIC [2] [mg/L] | MIC [4] [µg/mL] | MIC [7] [µg/mL] | PBP1a acylation rate, k(on) (M^−1 · s^−1) [3] | PBP3 acylation rate, k(on) (M^−1 · s^−1) [5] | PBP2 acylation rate, k(on) (M^−1 · s^−1) [6]
CN/C(=N\O)[C@@H]1c2c(cnn2C)[C@@H]2CN1C(=O)N2OS(=O)(=O)O (stereo in doubt) [Example 1, sodium (4R,8S)-8-((Z)—N′-hydroxy-N-methylcarbamimidoyl)-1-methyl-6-oxo-4,8-dihydro-1H-4,7-methanopyrazolo[3,4-e][1,3]diazepin-5(6H)-yl sulfate] | < 8 | < 8 | < 8 | < 8 | ** (** represents a k(on) of 100 to 10,000 M^−1 · s^−1) | *** (*** represents a k(on) > 10,000 M^−1 · s^−1) | * (* represents a k(on) < 100 M^−1 · s^−1)
